# Columns and labels:
# [1] = target: T1, KRASG12D (Homo sapiens, UniProt P01116, G12D); assay: Bio-Biochem-PPI-HTRF Ras-SOS1 interaction assay (KRAS G12D); assay type: biochemical; conditions: 5 nM
# T1 construct: made in house; host or cells: E. coli BL21 (DE3)
# Experimental: (§1) The assay buffer can contain −5 mM HEPES pH 7.4, ˜150 mM NaCl, ˜ 1 mM DTT, 0.05% BSA and 0.0025% (v/v) Igepal. A Ras working solution is prepared in an assay buffer containing typically a suitable amount of the protein construct (e.g., GST-tagged K-Ras mutant) and the FRET donor (e.g., antiGST-Eu(K) from Cisbio, France). A SOS1 working solution is prepared in an assay buffer containing suitable amount of the protein construct (e.g., His-hSOS1) and the FRET acceptor (e.g., anti-6His-XL665 from Cisbio, France). A suitable amount of the protein construct will depend on the range of activity or range of IC50 values being detected or under investigation. For detecting IC50 within a range of 500 nM, the protein constructs of the same range of molarity can be utilized. […] A fixed volume of DMSO with or without test compound is transferred into a 384-well plate. Ras working solution is added to all wells of the test plate. SOS1 working solution is added to all wells except for those that are subsequently filled the inhibitor control solution. Upon incubation for about 10 minutes or longer, the fluorescence is measured with a M1000Pro plate reader (Tecan) using HTRF detection (excitation 337 nm, emission 1:620 nm, emission 2: 665 nm). Compounds are tested in duplicates at different concentrations (for example, 10 μM, 2.5 μM, 0.63 μM, 0.16 μM, 0.04 μM, 0.01 μM test compound). The ratiometric data (i.e., emission 2 divided by emission 1) is used to calculate IC50 values against Ras using GraphPad Prism (GraphPad software). Following this general procedure, samples were tested with or without a subject compound disclosed herein including compounds exemplified in Table 1 to assess their abilities to inhibit a mutant K-Ras relative to another mutant K-Ras or wildtype K-Ras. Signaling output measured in terms of IC50 values can be obtained, a ratio of IC50 against one mutant relative to another mutant can be calculated. For instance, a selective reduction of K-Ras G12D signaling output can be evidenced by a ratio greater than one. In particular, a selective reduction of K-Ras G12D signaling relative to K-Ras WT signaling is evidenced as the ratio of IC50 (against K-Ras WT) to IC50 (against K-Ras G12D) is greater than 1.
# [2] = target: T2, KRASwt (Homo sapiens, UniProt P01116); assay: Bio-Biochem-PPI-HTRF Ras-SOS1 interaction assay (KRAS wt); assay type: biochemical; conditions: 5 nM
# T2 construct: made in house; host or cells: E. coli BL21 (DE3)
# Experimental: as §1
# T1 sequence (P01116 1-188 isoform P01116-2 G12D): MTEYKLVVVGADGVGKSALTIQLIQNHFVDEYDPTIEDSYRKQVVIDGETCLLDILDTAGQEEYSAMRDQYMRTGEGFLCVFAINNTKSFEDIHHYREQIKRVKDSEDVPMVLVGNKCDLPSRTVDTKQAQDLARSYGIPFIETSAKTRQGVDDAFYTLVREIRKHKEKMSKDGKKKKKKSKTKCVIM
# T2 sequence (P01116 1-188 isoform P01116-2): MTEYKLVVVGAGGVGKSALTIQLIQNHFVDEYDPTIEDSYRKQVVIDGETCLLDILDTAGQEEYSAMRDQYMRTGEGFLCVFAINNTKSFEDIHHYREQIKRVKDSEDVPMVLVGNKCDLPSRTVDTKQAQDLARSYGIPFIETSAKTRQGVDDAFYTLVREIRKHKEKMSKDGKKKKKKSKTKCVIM
SMILES,IC50 [1],IC50 [2]
"N#Cc1c(N)sc2c(F)ccc(-c3c(Cl)cc4c(N5CCCCC6(CN(C(=O)CC7CCC7)C6)C5)nc(OC[C@@]56CCCN5C[C@H](F)C6)nc4c3F)c12 [compound 320, 2-amino-4-(6-chloro-4-(2-(2-cyclobutylacetyl)-2,6-diazaspiro[3.6]decan-6-yl)-8-fluoro-2-(((2R,7aS)-2-fluorotetrahydro-1H-pyrrolizin-7a(5H)-yl)methoxy)quinazolin-7-yl)-7-fluorobenzo[b] thiophene-3-carbonitrile]",< 5 µM,< 5 µM
"CC(C)(C(=O)N1CC2(CCCCN(c3nc(OC[C@@]45CCCN4C[C@H](F)C5)nc4c(F)c(-c5ccc(F)c6sc(N)c(C#N)c56)c(Cl)cc34)C2)C1)N1CCOCC1 [compound 266, 2-amino-4-(6-chloro-8-fluoro-2-(((2R,7aS)-2-fluorotetrahydro-1H-pyrrolizin-7a(5H)-yl)methoxy)-4-(2-(2-methyl-2-morpholinopropanoyl)-2,6-diazaspiro[3.6]decan-6-yl)quinazolin-7-yl)-7-fluorobenzo[b]thiophene-3-carbonitrile]",< 5 µM,< 5 µM
"N#Cc1c(N)sc2c(F)ccc(-c3c(Cl)cc4c(N5CCCCC6(CN(C(=O)N7CCC7)C6)C5)nc(OC[C@@]56CCCN5C[C@H](F)C6)nc4c3F)c12 [compound 272, 2-amino-4-(4-(2-(azetidine-1-carbonyl)-2,6-diazaspiro[3.6]decan-6-yl)-6-chloro-8-fluoro-2-(((2R,7aS)-2-fluorotetrahydro-1H-pyrrolizin-7a(5H)-yl)methoxy)quinazolin-7-yl)-7-fluorobenzo[b]thiophene-3-carbonitrile]",< 5 µM,< 5 µM
"CC1(NC(=O)N2CC3(CCCCN(c4nc(OC[C@@]56CCCN5C[C@H](F)C6)nc5c(F)c(-c6ccc(F)c7sc(N)c(C#N)c67)c(Cl)cc45)C3)C2)COC1 [compound 328, 6-(7-(2-amino-3-cyano-7-fluorobenzo[b]thiophen-4-yl)-6-chloro-8-fluoro-2-(((2R,7aS)-2-fluorotetrahydro-1H-pyrrolizin-7a(5H)-yl)methoxy)quinazolin-4-yl)-N-(3-methyloxetan-3-yl)-2,6-diazaspiro[3.6]decane-2-carboxamide]",< 5 µM,< 5 µM
"CN(C)C/C=C/C(=O)N1CC2(C1)CN(c1nc(OC[C@@]34CCCN3C[C@H](F)C4)nc3c(F)c(-c4ccc(F)c5sc(N)nc45)c(Cl)cc13)CCO2 [compound 178, (E)-1-(8-(7-(2-amino-7-fluorobenzo[d]thiazol-4-yl)-6-chloro-8-fluoro-2-(((2R,7aS)-2-fluorotetrahydro-1H-pyrrolizin-7a(5H)-yl)methoxy)quinazolin-4-yl)-5-oxa-2,8-diazaspiro[3.5]nonan-2-yl)-4-(dimethylamino)but-2-en-1-one]",< 5 µM,< 5 µM
"N#Cc1c(N)sc2c(F)ccc(-c3c(Cl)cc4c(N5CCCCC6(CN(C(=O)C7CC7C7CC7)C6)C5)nc(OC[C@@]56CCCN5C[C@H](F)C6)nc4c3F)c12 (stereo partly drawn) [compound 261, 4-(4-(2-([1,1′-bi (cyclopropane)]-2-carbonyl)-2,6-diazaspiro[3.6]decan-6-yl)-6-chloro-8-fluoro-2-(((2R,7aS)-2-fluorotetrahydro-1H-pyrrolizin-7a(5H)-yl)methoxy)quinazolin-7-yl)-2-amino-7-fluorobenzo[b] thiophene-3-carbonitrile]",< 5 µM,< 5 µM
"CN1CCC[C@H]1COc1nc(N2CCOC3(CNC3)C2)c2cc(Cl)c(-c3ccc(F)c4sc(N)c(C#N)c34)c(F)c2n1 (single isomer, unassigned) [compound 114]",< 5 µM,< 5 µM
"C[C@H](O)C(=O)N1CC2(CCCCN(c3nc(OC[C@@]45CCCN4C[C@H](F)C5)nc4c(F)c(-c5ccc(F)c6sc(N)c(C#N)c56)c(Cl)cc34)C2)C1 [compound 318, 2-amino-4-(6-chloro-8-fluoro-2-(((2R,7aS)-2-fluorotetrahydro-1H-pyrrolizin-7a(5H)-yl)methoxy)-4-(2-((S)-2-hydroxypropanoyl)-2,6-diazaspiro[3.6]decan-6-yl)quinazolin-7-yl)-7-fluorobenzo[b]thiophene-3-carbonitrile]",< 5 µM,< 5 µM
"N#Cc1c(N)sc2c(F)ccc(-c3c(Cl)cc4c(N5CCCCC6(CN(C(=O)c7ccnn7CCC(F)F)C6)C5)nc(OC[C@@]56CCCN5C[C@H](F)C6)nc4c3F)c12 [compound 341, 2-amino-4-(6-chloro-4-(2-(1-(3,3-difluoropropyl)-1H-pyrazole-5-carbonyl)-2,6-diazaspiro[3.6]decan-6-yl)-8-fluoro-2-(((2R,7aS)-2-fluorotetrahydro-1H-pyrrolizin-7a(5H)-yl)methoxy)quinazolin-7-yl)-7-fluorobenzo[b]thiophene-3-carbonitrile]",< 5 µM,< 5 µM
"N#Cc1c(N)sc2c(F)ccc(-c3c(Cl)cc4c(N5CCCCC6(CN(C(=O)C7CCC7F)C6)C5)nc(OC[C@@]56CCCN5C[C@H](F)C6)nc4c3F)c12 (stereo partly drawn) [compound 160, 2-amino-4-(6-chloro-8-fluoro-4-(2-(2-fluorocyclobutane-1-carbonyl)-2,6-diazaspiro[3.6]decan-6-yl)-2-(((2R,7aS)-2-fluorotetrahydro-1H-pyrrolizin-7a(5H)-yl)methoxy)quinazolin-7-yl)-7-fluorobenzo[b]thiophene-3-carbonitrile]",< 5 µM,< 5 µM
"N#Cc1c(N)sc2c(F)ccc(-c3c(Cl)cc4c(N5CCC(F)(F)CC6(CN(C(=O)C78CC(F)(C7)C8)C6)C5)nc(OC[C@@]56CCCN5C[C@H](F)C6)nc4c3F)c12 [compound 229, 2-amino-4-(6-chloro-4-(9,9-difluoro-2-(3-fluorobicyclo[1.1.1]pentane-1-carbonyl)-2,6-diazaspiro[3.6]decan-6-yl)-8-fluoro-2-(((2R,7aS)-2-fluorotetrahydro-1H-pyrrolizin-7a(5H)-yl)methoxy)quinazolin-7-yl)-7-fluorobenzo[b]thiophene-3-carbonitrile]",< 5 µM,< 5 µM
"C#Cc1c(F)ccc2cc(O)cc(-c3ncc4c(N5CCCCC6(CN(C(=O)[C@@H]7CC7(F)F)C6)C5)nc(OC[C@@]56CCCN5C[C@H](F)C6)nc4c3F)c12 [compound 334, ((S)-2,2-difluorocyclopropyl) (6-(7-(8-ethynyl-7-fluoro-3-hydroxynaphthalen-1-yl)-8-fluoro-2-(((2R,7aS)-2-fluorotetrahydro-1H-pyrrolizin-7a(5H)-yl)methoxy)pyrido[4,3-d]pyrimidin-4-yl)-2,6-diazaspiro[3.6]decan-2-yl)methanone]",< 5 µM,< 5 µM
"N#Cc1c(N)sc2c(F)ccc(-c3c(Cl)cc4c(N5CC(F)(F)CCC6(CN(C(=O)[C@@H]7CC7(F)F)C6)C5)nc(OC[C@@]56CCCN5C[C@H](F)C6)nc4c3F)c12 [compound 232, 2-amino-4-(6-chloro-4-(2-((S)-2,2-difluorocyclopropane-1-carbonyl)-8,8-difluoro-2,6-diazaspiro[3.6]decan-6-yl)-8-fluoro-2-(((2R,7aS)-2-fluorotetrahydro-1H-pyrrolizin-7a(5H)-yl)methoxy)quinazolin-7-yl)-7-fluorobenzo[b]thiophene-3-carbonitrile]",< 5 µM,< 5 µM
"N#Cc1c(N)sc2c(F)ccc(-c3c(Cl)cc4c(N5CCCCC6(CN(C(=O)C78CC(F)(C7)C8)C6)C5)nc(OC[C@@]56CCCN5C[C@H](F)C6)nc4c3F)c12 [compound 199, 2-amino-4-(6-chloro-8-fluoro-4-(2-(3-fluorobicyclo[1.1.1]pentane-1-carbonyl)-2,6-diazaspiro[3.6]decan-6-yl)-2-(((2R,7aS)-2-fluorotetrahydro-1H-pyrrolizin-7a(5H)-yl)methoxy)quinazolin-7-yl)-7-fluorobenzo[b]thiophene-3-carbonitrile]",< 5 µM,< 5 µM
"N#Cc1c(N)sc2c(F)ccc(-c3c(Cl)cc4c(N5CCN(CC6CC6)C6(CN(C(=O)C(F)F)C6)C5)nc(OC[C@@]56CCCN5C[C@H](F)C6)nc4c3F)c12 [compound 346, 2-amino-4-(6-chloro-4-(5-(cyclopropylmethyl)-2-(2,2-difluoroacetyl)-2,5,8-triazaspiro[3.5]nonan-8-yl)-8-fluoro-2-(((2R,7aS)-2-fluorotetrahydro-1H-pyrrolizin-7a(5H)-yl)methoxy)quinazolin-7-yl)-7-fluorobenzo[b]thiophene-3-carbonitrile]",< 5 µM,< 5 µM
